The values that follow come from ChEMBL document CHEMBL1833803, “Discovery of 1-amino-5H-pyrido[4,3-b]indol-4-carboxamide inhibitors of Janus kinase 2 (JAK2) for the treatment of myeloproliferative disorders” (J Med Chem, 2011).

The structures appear in SMILES notation.

Data set [1] addresses T1, Tyrosine-protein kinase JAK3 (Homo sapiens, UniProt P52333).
T1 sequence (P52333 whole entry): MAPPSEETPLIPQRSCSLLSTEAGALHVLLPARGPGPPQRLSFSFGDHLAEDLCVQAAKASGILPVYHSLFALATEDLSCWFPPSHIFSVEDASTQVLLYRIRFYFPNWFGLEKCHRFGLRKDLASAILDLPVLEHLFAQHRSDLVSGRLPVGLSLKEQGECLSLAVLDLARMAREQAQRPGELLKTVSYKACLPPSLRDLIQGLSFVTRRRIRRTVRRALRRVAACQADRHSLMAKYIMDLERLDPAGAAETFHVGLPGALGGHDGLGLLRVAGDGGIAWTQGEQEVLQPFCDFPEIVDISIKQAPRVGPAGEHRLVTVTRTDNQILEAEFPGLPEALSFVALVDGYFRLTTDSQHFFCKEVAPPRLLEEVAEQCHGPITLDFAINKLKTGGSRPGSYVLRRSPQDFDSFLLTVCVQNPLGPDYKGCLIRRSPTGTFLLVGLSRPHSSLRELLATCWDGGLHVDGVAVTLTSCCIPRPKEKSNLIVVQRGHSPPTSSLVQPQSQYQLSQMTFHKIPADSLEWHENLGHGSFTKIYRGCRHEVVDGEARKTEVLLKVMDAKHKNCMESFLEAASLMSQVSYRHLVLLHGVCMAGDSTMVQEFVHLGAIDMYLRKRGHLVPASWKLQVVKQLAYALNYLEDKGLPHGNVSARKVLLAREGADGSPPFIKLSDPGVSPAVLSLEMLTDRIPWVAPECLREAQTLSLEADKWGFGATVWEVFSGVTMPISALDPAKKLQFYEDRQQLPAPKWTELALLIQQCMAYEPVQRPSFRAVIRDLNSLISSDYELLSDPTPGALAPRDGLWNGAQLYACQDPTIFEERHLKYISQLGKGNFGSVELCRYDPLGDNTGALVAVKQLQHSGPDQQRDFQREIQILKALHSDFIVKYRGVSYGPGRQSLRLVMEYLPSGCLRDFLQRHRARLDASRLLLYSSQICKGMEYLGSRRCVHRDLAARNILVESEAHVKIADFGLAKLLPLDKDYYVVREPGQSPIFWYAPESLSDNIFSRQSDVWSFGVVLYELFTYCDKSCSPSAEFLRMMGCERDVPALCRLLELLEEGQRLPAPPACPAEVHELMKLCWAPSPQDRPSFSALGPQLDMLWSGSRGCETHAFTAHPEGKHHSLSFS
Briefly: Inhibition of JAK3 using biotin-EQEDEPEGDYFEWLE- NH2 as substrate.

For data set [2], the target named is T2, Tyrosine-protein kinase JAK2 (Homo sapiens, UniProt O60674). Briefly: Inhibition of JAK2 using biotin-EQEDEPEGDYFEWLE- NH2 as substrate.
The nature of data set [3]: Selectivity ratio of IC50 for JAK3 to IC50 for JAK2.
In the next data set the target is CYP3A4 (Homo sapiens, UniProt P08684). Nature of the data set: Inhibition of CYP3A4 at 10 uM. The class given is ADME.
The target in data set [4] is T2, Tyrosine-protein kinase JAK2. Briefly: Inhibition of JAK2-mediated STAT5 phosphorylation in human HEL 92.1.7 irf1-bla cells. The class given is cell-based.
Data set [5] can be described thus: Half life in rat at 1 mg/kg, iv. The class given is ADME, organism-based. Also noted: dose 1 mg/kg, route intravenous. The settings on record: in vivo.
In data set [6] the target is Voltage-gated inwardly rectifying potassium channel KCNH2 (Homo sapiens, UniProt Q12809). Briefly: Inhibition of human hERG. Background: Block of hERG is tested as a sign of cardiac risk.
A short description of data set [7]: Clearance in rat at 1 mg/kg, iv. The class given is ADME, organism-based. Also noted: dose 1 mg/kg, route intravenous. The settings on record: in vivo.
Another data set deals with CYP2C9 (Homo sapiens, UniProt P11712). Nature of the data set: Inhibition of CYP2C9 at 10 uM. The class given is ADME.
A short description of data set [8]: Metabolic stability in rat hepatocytes assessed as half life. The class given is ADME, cell-based, Liver, Hepatocyte.
Data set [9] concerns the target Tyrosine-protein kinase JAK1 (Homo sapiens, UniProt P23458). Nature of the data set: Inhibition of JAK1.
Data set [10] is described as follows: Oral bioavailability in rat at 4 mg/kg. The conditions noted are these: in vivo. The class given is ADME, organism-based.
For data set [11], the target named is T2, Tyrosine-protein kinase JAK2. Nature of the data set: Inhibition of JAK2.
The nature of data set [12]: Aqueous solubility of the compound. The conditions noted are these: buffer. The class given is physicochemical.
The nature of data set [13]: Plasma clearance in rat at 2 mg/kg, iv and 4 mg/kg, po. The class given is ADME, organism-based.
The target in data set [14] is T1, Tyrosine-protein kinase JAK3. Nature of the data set: Inhibition of JAK3.
Data set [15] addresses Non-receptor tyrosine-protein kinase TYK2 (Homo sapiens, UniProt P29597). Nature of the data set: Inhibition of TYK2.
A short description of data set [16]: Lipophilicity, log D of the compound at pH 7.4. The class given is physicochemical. The conditions noted are these: buffer.

T2 sequence (O60674 whole entry): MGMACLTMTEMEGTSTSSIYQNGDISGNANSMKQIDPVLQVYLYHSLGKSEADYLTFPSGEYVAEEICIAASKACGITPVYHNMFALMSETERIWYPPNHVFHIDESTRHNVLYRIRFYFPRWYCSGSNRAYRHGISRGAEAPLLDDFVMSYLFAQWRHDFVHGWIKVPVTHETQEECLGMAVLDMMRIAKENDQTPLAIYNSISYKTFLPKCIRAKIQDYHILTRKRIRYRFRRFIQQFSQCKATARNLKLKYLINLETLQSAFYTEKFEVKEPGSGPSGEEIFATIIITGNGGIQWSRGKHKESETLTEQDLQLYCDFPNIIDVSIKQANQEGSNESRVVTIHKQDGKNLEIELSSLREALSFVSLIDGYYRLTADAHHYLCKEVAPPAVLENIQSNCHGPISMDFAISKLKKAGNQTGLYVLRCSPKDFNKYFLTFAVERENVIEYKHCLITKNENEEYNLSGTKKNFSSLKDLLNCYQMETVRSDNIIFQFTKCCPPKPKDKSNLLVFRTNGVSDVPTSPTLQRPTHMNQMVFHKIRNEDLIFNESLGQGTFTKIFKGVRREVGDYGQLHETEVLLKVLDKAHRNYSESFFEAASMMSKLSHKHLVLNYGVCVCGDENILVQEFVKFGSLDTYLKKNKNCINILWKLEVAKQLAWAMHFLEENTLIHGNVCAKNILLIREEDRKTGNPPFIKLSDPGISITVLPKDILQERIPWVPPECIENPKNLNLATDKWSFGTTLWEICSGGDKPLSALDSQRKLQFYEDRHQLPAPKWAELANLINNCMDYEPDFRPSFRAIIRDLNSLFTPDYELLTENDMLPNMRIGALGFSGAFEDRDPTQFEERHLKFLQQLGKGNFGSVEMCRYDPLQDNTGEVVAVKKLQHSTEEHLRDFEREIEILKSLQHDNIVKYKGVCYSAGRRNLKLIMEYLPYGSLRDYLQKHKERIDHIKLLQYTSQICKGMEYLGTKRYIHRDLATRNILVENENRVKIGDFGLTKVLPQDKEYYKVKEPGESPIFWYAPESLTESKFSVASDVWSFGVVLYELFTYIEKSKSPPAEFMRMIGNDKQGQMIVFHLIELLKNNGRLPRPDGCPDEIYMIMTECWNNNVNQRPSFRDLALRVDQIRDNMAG
Voltage-gated inwardly rectifying potassium channel KCNH2, sequence (Q12809 whole entry): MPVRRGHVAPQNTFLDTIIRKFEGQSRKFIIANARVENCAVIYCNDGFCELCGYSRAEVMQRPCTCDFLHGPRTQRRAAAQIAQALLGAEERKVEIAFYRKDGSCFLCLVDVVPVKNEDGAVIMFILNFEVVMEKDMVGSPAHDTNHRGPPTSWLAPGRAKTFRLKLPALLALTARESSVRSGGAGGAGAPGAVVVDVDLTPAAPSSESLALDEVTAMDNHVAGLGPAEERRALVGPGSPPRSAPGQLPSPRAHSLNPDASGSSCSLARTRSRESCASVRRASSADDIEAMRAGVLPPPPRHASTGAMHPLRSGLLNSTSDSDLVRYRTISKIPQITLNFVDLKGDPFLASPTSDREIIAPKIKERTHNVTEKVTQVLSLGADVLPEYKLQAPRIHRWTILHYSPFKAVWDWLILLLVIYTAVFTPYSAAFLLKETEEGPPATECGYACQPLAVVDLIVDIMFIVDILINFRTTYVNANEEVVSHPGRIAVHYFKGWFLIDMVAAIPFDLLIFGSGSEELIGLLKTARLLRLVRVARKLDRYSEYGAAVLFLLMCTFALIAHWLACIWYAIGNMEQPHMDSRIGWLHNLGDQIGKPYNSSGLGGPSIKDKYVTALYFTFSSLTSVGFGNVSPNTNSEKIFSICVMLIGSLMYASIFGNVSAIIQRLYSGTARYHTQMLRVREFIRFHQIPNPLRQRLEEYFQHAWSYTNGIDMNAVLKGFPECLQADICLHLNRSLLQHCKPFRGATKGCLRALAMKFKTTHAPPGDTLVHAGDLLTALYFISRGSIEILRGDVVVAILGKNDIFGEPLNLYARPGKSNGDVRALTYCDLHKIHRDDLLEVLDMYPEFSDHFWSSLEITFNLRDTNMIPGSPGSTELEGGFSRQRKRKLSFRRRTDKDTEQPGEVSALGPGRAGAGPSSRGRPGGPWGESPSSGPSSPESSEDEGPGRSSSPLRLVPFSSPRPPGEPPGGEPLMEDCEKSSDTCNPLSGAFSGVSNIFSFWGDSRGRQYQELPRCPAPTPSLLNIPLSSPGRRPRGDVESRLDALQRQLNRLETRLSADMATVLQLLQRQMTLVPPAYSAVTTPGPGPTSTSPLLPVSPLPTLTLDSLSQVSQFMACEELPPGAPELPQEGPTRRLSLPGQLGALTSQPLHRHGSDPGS
CYP3A4, sequence (P08684 whole entry): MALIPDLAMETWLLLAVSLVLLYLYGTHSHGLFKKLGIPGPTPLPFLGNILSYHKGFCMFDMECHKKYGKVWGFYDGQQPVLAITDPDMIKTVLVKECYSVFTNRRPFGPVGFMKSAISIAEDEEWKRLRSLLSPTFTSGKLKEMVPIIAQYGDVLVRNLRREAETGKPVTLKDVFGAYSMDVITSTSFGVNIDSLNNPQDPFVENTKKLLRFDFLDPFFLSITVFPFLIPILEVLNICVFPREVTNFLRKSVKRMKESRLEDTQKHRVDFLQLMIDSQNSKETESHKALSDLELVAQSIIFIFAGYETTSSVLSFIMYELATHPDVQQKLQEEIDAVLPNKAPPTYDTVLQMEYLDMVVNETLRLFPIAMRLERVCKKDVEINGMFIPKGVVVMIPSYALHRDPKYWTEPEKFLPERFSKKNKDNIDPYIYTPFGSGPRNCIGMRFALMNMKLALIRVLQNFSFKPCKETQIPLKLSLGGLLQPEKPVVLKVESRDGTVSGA
CYP2C9, sequence (P11712 whole entry): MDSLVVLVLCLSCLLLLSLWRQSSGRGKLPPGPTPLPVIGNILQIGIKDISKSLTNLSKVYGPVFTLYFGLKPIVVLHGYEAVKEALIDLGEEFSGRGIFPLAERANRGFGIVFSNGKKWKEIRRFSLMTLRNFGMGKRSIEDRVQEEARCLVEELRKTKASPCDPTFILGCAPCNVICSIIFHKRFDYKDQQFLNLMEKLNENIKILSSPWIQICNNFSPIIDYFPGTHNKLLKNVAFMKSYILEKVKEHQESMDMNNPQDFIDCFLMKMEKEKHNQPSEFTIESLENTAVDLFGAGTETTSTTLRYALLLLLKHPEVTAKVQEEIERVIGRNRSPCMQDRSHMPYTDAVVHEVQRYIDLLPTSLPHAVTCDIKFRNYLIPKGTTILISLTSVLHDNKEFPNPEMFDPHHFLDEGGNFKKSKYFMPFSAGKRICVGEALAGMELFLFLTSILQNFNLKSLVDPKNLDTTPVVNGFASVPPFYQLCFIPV
Non-receptor tyrosine-protein kinase TYK2, sequence (P29597 whole entry): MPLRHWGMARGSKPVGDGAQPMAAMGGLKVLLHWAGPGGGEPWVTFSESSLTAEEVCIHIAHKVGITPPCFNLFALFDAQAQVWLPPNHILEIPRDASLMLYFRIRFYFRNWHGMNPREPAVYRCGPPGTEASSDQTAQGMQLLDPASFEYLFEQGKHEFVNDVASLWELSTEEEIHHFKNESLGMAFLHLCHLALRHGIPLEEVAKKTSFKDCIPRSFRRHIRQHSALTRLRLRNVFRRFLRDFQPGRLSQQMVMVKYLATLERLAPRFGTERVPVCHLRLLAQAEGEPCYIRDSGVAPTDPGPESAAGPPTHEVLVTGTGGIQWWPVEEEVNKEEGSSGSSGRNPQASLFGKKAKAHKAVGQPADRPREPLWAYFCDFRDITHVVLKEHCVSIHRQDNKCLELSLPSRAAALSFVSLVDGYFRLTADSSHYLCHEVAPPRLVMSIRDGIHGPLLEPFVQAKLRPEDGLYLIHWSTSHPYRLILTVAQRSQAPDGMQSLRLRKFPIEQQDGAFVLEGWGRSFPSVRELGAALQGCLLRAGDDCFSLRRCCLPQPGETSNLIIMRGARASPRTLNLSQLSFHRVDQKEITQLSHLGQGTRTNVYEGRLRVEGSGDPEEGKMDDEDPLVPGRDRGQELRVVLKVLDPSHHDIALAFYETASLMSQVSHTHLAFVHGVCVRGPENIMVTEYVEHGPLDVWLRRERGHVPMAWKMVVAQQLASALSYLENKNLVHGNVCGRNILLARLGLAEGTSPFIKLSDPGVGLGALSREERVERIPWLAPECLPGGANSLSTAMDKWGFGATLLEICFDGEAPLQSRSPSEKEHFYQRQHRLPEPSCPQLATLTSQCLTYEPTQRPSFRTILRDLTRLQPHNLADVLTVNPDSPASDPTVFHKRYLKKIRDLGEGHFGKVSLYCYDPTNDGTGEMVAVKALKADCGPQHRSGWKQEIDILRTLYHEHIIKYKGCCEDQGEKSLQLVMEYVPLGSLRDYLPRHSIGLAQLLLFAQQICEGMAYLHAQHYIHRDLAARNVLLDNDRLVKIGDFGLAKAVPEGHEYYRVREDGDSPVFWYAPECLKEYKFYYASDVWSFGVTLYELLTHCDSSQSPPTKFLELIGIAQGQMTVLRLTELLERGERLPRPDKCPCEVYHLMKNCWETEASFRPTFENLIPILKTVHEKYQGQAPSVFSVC

For the molecule `Cn1cc(-c2ccc3c(c2)[nH]c2c(C(N)=O)cnc(NC(C4CC4)C4CC4)c23)cn1`, the half-inhibitory concentration (IC50) (commonly the concentration that gives 50% inhibition) in data set [1] was 280 nM; in [2], 2 nM; in data set [4], 130 nM; in data set [6], 1700 nM. In addition, the Ratio IC50 in [3] is above 50. For the same molecule, the inhibition (commonly the relative decrease from the control value, in per cent) at 10 µM came out at 62% against CYP3A4 and 80% at CYP2C9. Further, the half-life – broadly, how long it takes for the measured level to halve – in data set [5] is 3.2 h. Further, in data set [7], the clearance was 22 mL/min/kg.

In the case of `C[C@H](Nc1ncc(C(N)=O)c2[nH]c3cc(-c4cnn(C)c4)ccc3c12)C1CC1`, the half-life was 1.02 h in data set [8] and 1 h in data set [5]. The IC50 amounted to 140 nM in data set [1], 1 nM in data set [2] and 14 nM in data set [4]. For the same molecule, in [3], the Ratio IC50 is above 50. The clearance in [7] worked out at 44 mL/min/kg.

As for `C[C@H](Nc1ncc(C(N)=O)c2[nH]c3cc(-c4cnn(C)c4)ccc3c12)C(C)(C)C`, the half-life in data set [8] stood at 0.25 h. Besides, the half-inhibitory concentration (IC50) in data set [1] turned out to be 350 nM; in data set [2], 5 nM; in [4] it was 370 nM; in data set [6], 29000 nM. For the same molecule, the Ratio IC50 in [3] was above 50. Further, at CYP3A4, the inhibition at 10 µM came to 49%.

Consider `O=c1[nH]ccc2c3[nH]c(-c4ccccc4Cl)nc3c3ccc(F)cc3c12`, for which the concentration for half-maximal inhibition (IC50) turned out to be 2 nM in data set [9], 3 nM in data set [11], 77 nM in data set [14] and 7 nM in [15]. The bioavailability (as a rule, dose-corrected exposure relative to a reference, in per cent) in data set [10] is 100%. For the same molecule, the Ratio IC50 in data set [3] was found to be 26. In [12], the solubility – broadly, the concentration that dissolves in the medium under given conditions – is below 2 µM. Moreover, the clearance in data set [13] came to 5.4 mL/min/kg. For the same molecule, the logD (as a rule, lipophilicity at a set pH, counting ionised and neutral species) in data set [16] came out at 3.6.
